What was measured:
[1] = tested on: wild-type mouse mechanical load-induced muscle hypertrophy model; experiment: Mechanical overload (tenotomy)-induced muscle hypertrophy model; format: in vivo; settings: DAPT 10 mg/kg i.p. after tenotomy, day 14, vs control mice
Description: (§1) Wild-type mice were used to examine the effects of inhibition of the Notch signaling pathway on muscle in vitro. Ultra-LEAF™ anti-mouse Dll4 antibody (Dll4 blocking antibody) or Ultra-LEAF™ American hamster IgG control antibody (control antibody) was administered intraperitoneally (10 mg/kg body weight) every 4 days in each experiment. Recombinant Dll4-Fc chimeric protein (rDll4) was dissolved in phosphate-buffered saline (PBS) and administered (0.5 mg/kg body weight) every two days. The γ-secretase inhibitor, DAPT, dissolved in 10% ethanol and corn oil, was administered every 2 days (10 mg/kg body weight). Control mice were injected intraperitoneally with an equivalent volume of vehicle in rDll4 or DAPT experiments.
Tenotomy surgery was performed on both legs of mice to induce muscle hypertrophy. In anesthetized mice, an incision was made along the midline of the calf after hair removal. […]
(§2) Isolated PLA or TA muscles were immediately frozen in liquid nitrogen-cooled 2-methylbutane and stored at −80° C. until analysis. […] Immunostained specimens were visualized using Alexa Fluor conjugated secondary antibodies and observed using fluorescence microscopy. Image-J (NIH) was used to quantify myofiber CSA from at least 500 myofibers and count the number of satellite cells per myofiber from at least 15 myofibers.

[2] = tested on: EDL myofibers derived from N2f/f mice; experiment: Dll4-induced myofiber atrophy on recombinant Dll4-coated plates with γ-secretase inhibitor; format: cell-based, mouse; settings: DAPT 10 μM, 48 hours, recombinant Dll4-coated plate
Description: Culture dishes were coated with Notch ligand recombinant protein as reported by Sakai et al. (Sakai et al., PLOS One 12, e0177516 (2017)). Culture dishes were first coated with 10 μg/ml anti-Fc antibody for 1 hour at room temperature, followed by Matrigel (Corning) for 20 minutes. Fc antibody coated dishes were incubated with 5 ng/μl of Fc fusion protein of each Notch ligand (Dll1, Dll4, Jag1 and Jag2) for 1 hour at room temperature. Individual myofibers isolated from EDL muscle were placed in serum-free DMEM and cultured in a CO2 incubator for 48 hours. DAPT (10 µM) was used to inhibit γ-secretase activity in myofibers.
Cultured myofibers were captured using fluorescence microscopy and diameters were quantified from at least 15 individual myofibers using ImageJ (NIH).
Notch, which is a transmembrane receptor, has its transmembrane domain cleaved by γ-secretase, translocates its intracellular domain to the nucleus, and functions as a transcription factor. Therefore, DAPT, a γ-secretase inhibitor, was used to test the influence of γ-secretase activity on Dll4-induced myofiber atrophy. EDL myofibers derived from N2^f/f mice were cultured for 48 hours on a plate coated previously with recombinant Dll4 protein using a medium containing a γ-secretase inhibitor DAPT (10 μM) or PBS.

wild-type mouse DB model = experiment: STZ-induced diabetes (DB) muscle atrophy model; format: in vivo; settings: DAPT 10 mg/kg i.p. every other day during DB induced period
Description: as §1, with “Control mice were injected intraperitoneally with an equivalent volume of vehicle in rDll4 or DAPT experiments.” left out
Mice were given a single intraperitoneal injection of STZ (150 mg/kg body weight) at a level that is toxic to insulin-producing pancreatic β-cells, or an equal volume of solvent (0.1 M citrate buffer, pH 4.5) as a control was injected. Mice were monitored for hyperglycemia on day 3 using Accu-chek (Roche), and only mice that achieved casual blood glucose levels>300 mg/dl were used in the experiment. […]
(§3) Total RNA was extracted from muscle tissue, isolated myofibers, cultured cells, and freshly sorted cells using ISOGEN II and RNeasy Kit (Qiagen) according to the manufacturer's instructions. […] Quantitative PCR (qPCR) was performed using THUNDERBIRD SYBR qPCR mix (TOYOBO) and real-time PCR detection system (CFX96; Bio Rad). […]

wild-type mouse HU model = experiment: Hindlimb unloading (HU) muscle atrophy model; format: in vivo; settings: DAPT 10 mg/kg i.p. every other day during HU period
Description: as §1, with “Control mice were injected intraperitoneally with an equivalent volume of vehicle in rDll4 or DAPT experiments.” left out
as §3, §2

For `C[C@H](NC(=O)Cc1cc(F)cc(F)c1)C(=O)N[C@H](C(=O)OC(C)(C)C)c1ccccc1` [DAPT], the “muscle hypertrophy (overload-induced PLA muscle weight gain)” value [1] was “muscle hypertrophy was exhibited more readily”, the “myofiber atrophy on Dll4 stimulation (myofiber diameter)” value [2] was “resistant to Dll4 stimulation” and the “muscle atrophy (muscle mass)” value (wild-type mouse DB model) was “significant suppression of muscle atrophy”. For the same compound, the “muscle atrophy (muscle mass of SOL, PLA, GAS)” value (wild-type mouse HU model) was “significant suppression of muscle atrophy”.

— patent US20240287173A1, “THERAPEUTIC AGENT FOR MUSCULAR ATROPHY” (NATIONAL UNIVERSITY CORPORATION KUMAMOTO UNIVERSITY, priority 2021, published 2024)
